In patent US11819532B2, “Peptide macrocycles against Acinetobacter baumannii” (Hoffmann-La Roche Inc., priority 2018, dated 2023):
pIC50: −log10 of the molar value. Like-named read-outs stand apart in the source and are kept apart here.

What was measured:
[1] = Plasma precipitation screening assay; set-up: species or system rat
Protocol: An aliquot (10 μL) of compound solubilized in physiological buffer or the formulation used for its parenteral administration in vivo, and of various dilutions thereof in phosphate-buffered saline (PBS), is mixed 1:1 with rat plasma. After 10 minutes incubation at room temperature the UV-absorption of the mixtures is measured and compared to absorption of blank plasma or plasma with vehicle solution. A significant (often concentration dependent) increase of absorption is indicative of precipitation.
Whole blood is obtained from WISTAR rats (Hanbrl:Wist SPF) under terminal anaesthesia after intraperitoneal injection of a pentobarbital solution (from animals euthanized for collection of tissue for other experimental purposes). Blood is collected in 1.2 mL of Heparin S-Monovette tubes (Sarstedt) for the preparation of heparin plasma.
The tubes are then centrifuged for 5 min at 5200 g at room temperature to isolate the plasma supernatant. The plasma is used in the assay within 48 h of collection (storage at 4° C.).
Test compounds are received as powder or formulated. When obtained as powder, they are solubilized in 0.9% aq. sodium chloride solution in order to get the highest indicated concentration to be tested. The solubility is visually checked and the solutions are filtered using 0.45 PVDF hydrophilic filters (Durapore®, Darmstadt, Germany), to remove possible solid impurities. pH of this initial solution might be measured in the filtered stock solutions, before proceeding to prepare a compound dilution series in PBS (1:1-dilution steps).
The assay is conducted in 384-well plates. 10 μL of rat plasma is added to 10 μL of the various compound solutions. The assay is performed in duplicate. 10 μL of vehicle (0.9% aq. sodium chloride solution, PBS) added to the plasma is used as a negative control. The absorption is measured at 362 nm.
Raw data obtained are absorbance data. The difference between absorbance of the sample and mean absorbance of vehicle is calculated. The minimal effect concentration (MEC) is defined as the lowest concentration giving an absorbance difference, OD362≥0.05.

A. baumannii ATCC 17978 = assay: 50% growth inhibitory concentration (IC50) determination, antimicrobial susceptibility testing; assay type: cell-based; settings: Acinetobacter baumannii
Protocol: The in vitro antimicrobial activity of the compounds was alternatively determined according to the following procedure:
The assay used a 10-points Iso-Sensitest broth medium to measure quantitatively the in vitro activity of the compounds against A. baumannii ATCC 17978.
Stock compounds in DMSO were serially twofold diluted (e.g. range from 50 to 0.097 μM or from 10 to 0.020 μM final concentration) in 384 wells microtiter plates and inoculated with 49 μl the bacterial suspension in Iso-Sensitest medium to have a final cell concentration of ˜5×10^(5)CFU/ml in a final volume/well of 50 μl/well. Microtiter plates were incubated at 35±2° C.
Bacterial cell growth was determined with the measurement of optical density at X=600 nm each 20 minutes over a time course of 16h.
Growth inhibition was calculated during the logarithmic growth of the bacterial cells with determination of the concentration inhibiting 50% (IC50) and 90% (IC90) of the growth.
Table 1 provides the 50% growth inhibitory concentrations (IC50) in micromoles per liter of the compounds of present invention obtained against the A. baumannii strain ATCC17978.

[2] = minimal effect concentration, lowest concentration giving absorbance difference OD362≥0.05, rat plasma 1:1, 10 minutes room temperature
[3] = ATCC17978, read-out: IC50 ATCC17978
[4] = Wistar (Hanbrl:Wist SPF), rat, 10 min
[5] = 50% growth inhibition, A. baumannii strain ATCC17978, Iso-Sensitest medium, read-out: IC50 ATCC17978

SMILES | Plasma precipitation MEC [1, 2] [µmol/L] | pIC50 (A. baumannii ATCC 17978; [3]) | Plasma precipitation MEC [1, 4] [µmol/L] | pIC50 (A. baumannii ATCC 17978; [5])
CN1C(=O)[C@H](CCCCN)NC(=O)[C@H](CCCN)NCc2cccnc2Sc2c(Cl)ccc(Cl)c2CNC(=O)[C@@H]1Cc1c[nH]c2ccccc12 [Example 38 of WO2017/072062, reference compound] | 52 | 7.38 | – | –
CN1C(=O)[C@H](CCCCN)NC(=O)[C@H](CCCN)NCc2cccnc2Sc2c(Cl)ccc(-c3ccn4nc(C(=O)O)cc4c3)c2CNC(=O)[C@@H]1Cc1c[nH]c2ccccc12 [Example 2.01, 5-[(11S,14S,17S)-14-(4-aminobutyl)-11-(3-aminopropyl)-25-chloro-17-(1H-indo1-3-ylmethyl)-16-methyl-12,15,18-trioxo-2-thia-4,10,13,16,19-pentazatricyclo[19.4.0.03,8]pentacosa-1(25),3(8),4,6,21,23-hexaen-22-yl]pyrazolo[1,5-a]pyridine-2-carboxylic acid] | – | – | 820 | 7.70
CN1C(=O)[C@H](CCCCN)NC(=O)[C@H](CCCN)NCc2cccnc2Sc2c(F)ccc(-c3ccc(C(=O)O)cc3)c2CNC(=O)[C@@H]1Cc1c[nH]c2ccccc12 [Example 9.00, 4-[(1 S,14S,17S)-14-(4-aminobutyl)-1-(3-aminopropyl)-25-fluoro-17-(1H-indol-3-ylmethyl)-16-methyl-12,15,18-trioxo-2-thia-4,10,13,16,19-pentazatricyclo[19.4.0.03,8]pentacosa-1(25), 3(8), 4,6,21,23-hexaen-22-yl]benzoic Acid] | – | – | 870 | 7.70
CN1C(=O)[C@H](CCCCN)NC(=O)[C@H](CCCN)NCc2cccnc2Sc2c(Cl)ccc(-c3ccc(C(=O)O)c(S(C)(=O)=O)c3)c2CNC(=O)[C@@H]1Cc1c[nH]c2ccccc12 [Example 2.00, 4-[(11S,14S,17S)-14-(4-Aminobutyl)-11-(3-aminopropyl)-25-chloro-17-(1H-indol-3-ylmethyl)-16-methyl-12,15,18-trioxo-2-thia-4,10,13,16,19-pentazatricyclo[19.4.0.03,8]pentacosa-1(25), 3(8), 4,6,21,23-hexaen-22-yl]-2-methylsulfonyl-benzoic Acid] | – | – | 950 | 7.14
COc1ccc(-c2ccc(C(=O)O)cc2)c2c1Sc1ncccc1CN[C@@H](CCCN)C(=O)N[C@@H](CCCCN)C(=O)N(C)[C@@H](Cc1c[nH]c3ccccc13)C(=O)NC2 [Example 11.00, 4-[(11S,14S,17S)-14-(4-Aminobutyl)-11-(3-aminopropyl)-17-(1H-indol-3-ylmethyl)-25-methoxy-16-methyl-12,15,18-trioxo-2-thia-4,10,13,16,19-pentazatricyclo[19.4.0.03,8]pentacosa-1(25), 3(8), 4,6,21,23-hexaen-22-yl]benzoic Acid] | – | – | 1720 | 7.15
CN1C(=O)[C@H](CCCCN)NC(=O)[C@H](CCCN)NCc2cccnc2Sc2cncc(-c3ccc(C(=O)O)cc3)c2CNC(=O)[C@@H]1Cc1c[nH]c2ccccc12 [Example 18.00, 4-[(11S,14S,17S)-14-(4-Aminobutyl)-1-(3-aminopropyl)-17-(1H-indol-3-ylmethyl)-16-methyl-12,15,18-trioxo-2-thia-4,10,13,16,19,24-hexazatricyclo[19.4.0.03,8]pentacosa-1(25), 3(8), 4,6,21,23-hexaen-22-yl]benzoic Acid] | – | – | >1760 | 7.12
COc1cc(-c2ccc(Cl)c3c2CNC(=O)[C@H](Cc2c[nH]c4ccccc24)N(C)C(=O)[C@H](CCCCN)NC(=O)[C@H](CCCN)NCc2nccnc2S3)ccc1C(=O)O (racemic) [Example 8.03, 2-methoxy-4-[rac-(11S,14S,17S)-14-(4-aminobutyl)-11-(3-aminopropyl)-25-chloro-17-(1H-indo1-3-ylmethyl)-16-methyl-12,15,18-trioxo-2-thia-4,7,10,13,16,19-hexazatricyclo [19.4.0.03,8]pentacosa-1(25),3(8),4,6,21,23-hexaen-22-yl]benzoic acid] | – | – | 760 | 7.11
CN1C(=O)[C@H](CCCN)NC(=O)[C@H](CCCN)NCc2cccnc2Sc2c(F)ccc(-c3ccc(C(=O)O)nc3)c2CNC(=O)[C@@H]1Cc1c[nH]c2ccccc12 [Example 14.01, 5-[(11S,14S,17S)-11,14-bis(3-Aminopropyl)-25-fluoro-17-(1H-indol-3-ylmethyl)-16-methyl-12,15,18-trioxo-2-thia-4,10,13,16,19-pentazatricyclo[19.4.0.03,8]pentacosa-1(25), 3(8), 4,6,21,23-hexaen-22-yl]pyridine-2-carboxylic Acid] | – | – | 880 | 7.05
Cc1ccc(-c2ccn(CC(=O)O)c(=O)c2)c2c1Sc1ncccc1CN[C@@H](CCCN)C(=O)N[C@@H](CCCCN)C(=O)N(C)[C@@H](Cc1c[nH]c3ccccc13)C(=O)NC2 [Example 10.01, 2-[4-[(1S,4S,17S)-14-(4-Aminobutyl)-11-(3-aminopropyl)-17-(1H-indol-3-ylmethyl)-16,25-dimethyl-12,15,18-trioxo-2-thia-4,10,13,16,19-pentazatricyclo[19.4.0.03,8]pentacosa-1(25), 3(8), 4,6,21,23-hexaen-22-yl]-2-oxo-1-pyridyl]acetic Acid] | – | – | >1700 | 7.11
Cc1ccc(-c2ccc(C(=O)O)cc2)c2c1Sc1ncccc1CN[C@@H](CCCN)C(=O)N[C@@H](CCCCN)C(=O)N(C)[C@@H](Cc1c[nH]c3ccccc13)C(=O)NC2 [Example 10.00, 4-[(11S,14S,17S)-14-(4-Aminobutyl)-1-(3-aminopropyl)-17-(1H-indol-3-ylmethyl)-16,25-dimethyl-12,15,18-trioxo-2-thia-4,10,13,16,19-pentazatricyclo[19.4.0.03,8]pentacosa-1(25), 3(8), 4,6,21,23-hexaen-22-yl]benzoic Acid] | – | – | 870 | 7.62
CN1C(=O)[C@H](CCCCN)NC(=O)[C@H](CCCN)NCc2nccnc2Sc2c(Cl)ccc(-c3ccc(C(=O)O)c(Cl)c3)c2CNC(=O)[C@@H]1Cc1c[nH]c2ccccc12 (racemic) [Example 8.01, 2-chloro-4-[rac-(11S,14S,17S)-14-(4-aminobutyl)-11-(3-aminopropyl)-25-chloro-17-(1H-indo1-3-ylmethyl)-16-methyl-12,15,18-trioxo-2-thia-4,7,10,13,16,19-hexazatricyclo[19.4.0.03,8]pentacosa-1(21),3,5,7,22,24-hexaen-22-yl]benzoic acid] | – | – | 760 | 7.55
CN1C(=O)[C@H](CCCCN)NC(=O)[C@H](CCCN)NCc2cccnc2Sc2c(Cl)ccc(-c3ccc(C(=O)O)cc3)c2CNC(=O)[C@@H]1Cc1c[nH]c2ccccc12 [Example 239 of WO2017/072062, reference compound] | 470 | 7.70 | – | –
Cc1[nH]c2ccccc2c1C[C@H]1C(=O)NCc2c(-c3ccn(CC(=O)O)c(=O)c3)ccc(Cl)c2Sc2ncccc2CN[C@@H](CCCN)C(=O)N[C@@H](CCCCN)C(=O)N1C [Example 7.01, 2-[4-[(1 S,14S,17S)-14-(4-Aminobutyl)-11-(3-aminopropyl)-25-chloro-16-methyl-17-[(2-methyl-1H-indol-3-yl)methyl]-12,15,18-trioxo-2-thia-4,10,13,16,19-pentazatricyclo[19.4.0.03,8]pentacosa-1(25), 3(8), 4,6,21,23-hexaen-22-yl]-2-oxo-1-pyridyl]acetic Acid] | – | – | 1650 | 7.34
CN1C(=O)[C@H](CCCCN)NC(=O)[C@H](CCCN)NCc2cccnc2Sc2c(F)ccc(-c3ccn(CC(=O)O)c(=O)c3)c2CNC(=O)[C@@H]1Cc1c[nH]c2ccccc12 [Example 9.01, 2-[4-[(11S,14S,17S)-14-(4-Aminobutyl)-11-(3-aminopropyl)-25-fluoro-17-(1H-indo1-3-ylmethyl)-16-methyl-12,15,18-trioxo-2-thia-4,10,13,16,19-pentazatricyclo[19.4.0.03,8]pentacosa-1(25),3(8),4,6,21,23-hexaen-22-yl]-2-oxo-1-pyridyl]acetic acid] | – | – | >1690 | 7.09
